Experiments:
[1] = system: Sphaerotheca fuliginea; test: Sphaerotheca test (cucumbers)/preventive; settings: preventive spray, 7 days after inoculation
Experimental: Sphaerotheca Test (Cucumbers)/Preventive
After the spray coating has dried on, the plants are inoculated with an aqueous spore suspension of Sphaerotheca fuliginea. The plants are then placed in a greenhouse at approximately 23° C. and a relative atmospheric humidity of approximately 70%.
The test is evaluated 7 days after the inoculation.

[2] = system: Venturia inaequalis; test: Venturia test (apples)/preventive; settings: preventive spray, 10 days after inoculation
Experimental: Venturia Test (Apples)/Preventive
After the spray coating has dried on, the plants are inoculated with an aqueous conidia suspension of the causal agent of apple scab (Venturia inaequalis) and then remain for 1 day in an incubation cabinet at approximately 20° C. and a relative atmospheric humidity of 100%.
The plants are then placed in a greenhouse at approximately 21° C. and a relative atmospheric humidity of approximately 90%.
The test is evaluated 10 days after the inoculation.

[3] = system: Alternaria solani; test: Alternaria test (tomatoes)/preventive; settings: preventive spray, 3 days after inoculation
Experimental: The application rate of QST30002 refers to the amount of dried Bacillus subtilis AQ30002 aka QST300202 (NRRL Accession No. B-50421.
After the spray coating has dried on, the plants are inoculated with an aqueous spore suspension of Alternaria solani. The plants are then placed in an incubation cabinet at approximately 20° C. and a relative atmospheric humidity of 100%.
The test is evaluated 3 days after the inoculation.

[4] = system: Botrytis cinerea; test: Botrytis test (beans)/preventive; settings: Table E, 100 ppm a.i., preventive spray, lesion size 2 days after inoculation
Experimental: Botrytis Test (Beans)/Preventive
After the spray coating has dried on, 2 small pieces of agar covered with growth of Botrytis cinerea are placed on each leaf. The inoculated plants are placed in a darkened chamber at 20° C. and a relative atmospheric humidity of 100%.
2 days after the inoculation, the size of the lesions on the leaves is evaluated.

[5] = system: Phytophthora infestans; type: in vivo; settings: Table A; 100 ppm a.i.; tomatoes, preventive spray; 3 days after inoculation

O=C(NCCc1ncc(C(F)(F)F)cc1Cl)c1ccccc1C(F)(F)F [F70 fluopyram, fluopyram]
Efficacy in % found (activity found) ([1]; Table C2, 4 ppm a.i.): 10%
Efficacy in % found (activity found) ([2]; Table B1, 4 ppm a.i.): 4%
Efficacy in % found (activity found) ([3]; Table D1, 4 ppm a.i.): 33%

CC(C)Oc1cccc(NC(=O)c2ccccc2C(F)(F)F)c1 [F71 flutolanil, flutolanil]
Efficacy in % found (activity found) ([1]; Table C1, 100 ppm a.i.): 0%
Efficacy in % found (activity found) ([2]; Table B2, 100 ppm a.i.): 4%
Efficacy in % found (activity found) [4]: 0%
Efficacy in % found (activity found) [5]: 33%
Efficacy in % found (activity found) ([3]; Table D2, 50 ppm a.i.): 43%

Cn1cc(C(=O)Nc2ccccc2-c2cc(F)c(F)c(F)c2)c(C(F)F)n1 [F72 fluxapyroxad, fluxapyroxad]
Efficacy in % found (activity found) ([1]; Table C2, 1 ppm a.i.): 29%
Efficacy in % found (activity found) ([2]; Table B1, 0.5 ppm a.i.): 43%
Efficacy in % found (activity found) ([3]; Table D1, 1 ppm a.i.): 47%

Cc1nn(C)c(F)c1C(=O)Nc1ccccc1C(C)CC(C)C (stereo not shown) [F84 penflufen, penflufen]
Efficacy in % found (activity found) ([1]; Table C2, 2 ppm a.i.): 0%
Efficacy in % found (activity found) ([2]; Table B1, 2 ppm a.i.): 0%

Reference: patent US9756864B2
